“And” between values parts separate entries of the source, which are not always exact repeats. Equal values may be shown once. Read-outs that look alike come from different tables or passages of the source.
Experiments:
AChE = target: T1, AChE (Mus musculus, UniProt P21836); assay: Cholinesterase inhibition upon repeated dosing, serum AChE; type: in vivo, C57BL/6JRccHsd mice
T1 construct: from tissue; host or cells: mouse serum (C57BL/6JRccHsd)
T1 sequence (P21836 32-614): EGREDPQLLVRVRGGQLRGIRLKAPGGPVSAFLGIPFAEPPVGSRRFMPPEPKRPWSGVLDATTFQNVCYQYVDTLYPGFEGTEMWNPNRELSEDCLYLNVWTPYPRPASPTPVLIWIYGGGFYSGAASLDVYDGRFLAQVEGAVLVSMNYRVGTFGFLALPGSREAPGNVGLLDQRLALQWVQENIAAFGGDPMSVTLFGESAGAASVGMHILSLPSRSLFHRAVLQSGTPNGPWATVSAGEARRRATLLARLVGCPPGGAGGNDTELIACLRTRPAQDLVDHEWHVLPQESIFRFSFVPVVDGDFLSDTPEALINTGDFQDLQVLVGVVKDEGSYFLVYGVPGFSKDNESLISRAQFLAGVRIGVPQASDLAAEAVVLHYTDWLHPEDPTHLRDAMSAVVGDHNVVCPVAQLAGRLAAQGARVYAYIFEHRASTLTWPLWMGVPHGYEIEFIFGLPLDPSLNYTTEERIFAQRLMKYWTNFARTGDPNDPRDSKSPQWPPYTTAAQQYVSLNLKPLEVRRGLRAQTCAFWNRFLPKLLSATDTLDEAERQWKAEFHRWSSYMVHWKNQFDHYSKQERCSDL
Excerpt: The 12 mice used in this pilot study were 9–14 months old male wild-type C57BL/6JRccHsd mice bred in the Laboratory of Animal Genomics at the Faculty of Veterinary Medicine, University of Ljubljana, or purchased from Envigo RMS Holding Corp. Mice were conventionally bred in open polycarbonate cages (Tecniplast, Buguggiate, Italy) and provided with wood chip bedding (Lignocel®, Rettenmaier and Sons, Germany). Mice were kept under standard conditions, including a 12:12 dark–light cycle (LED, CCT 3000 k, with no more than 25 lux above the cage), a temperature range of 21–24 °C, and humidity between 50%–60%. They were fed irradiated rodent diet (Teklad global 16% protein rodent diet®, BN 2916, Envigo, Udine, Italy) and had access to drinkable tap water ad libitum. Due to the nature of this pilot study, the mice were housed individually. The experimental design was evaluated by the National Ethics Committee for Animal Experiments and approved by the Veterinary Administration of the Republic of Slovenia (document no. U34401-10/2021/8, with amendments U34401-10/2021/13 and U34401-10/2021/1).
Before the start of study, blood was drawn from the submandibular vein (facial vein) of the animals under isoflurane inhalation anesthesia (Isoflurin®, VetPharma, Spain) using a 5 mm lancet (Goldenrod Animal Sterile, MEDIpoint, Inc., NY, USA), collected in a microtube (Eppendorf, Safe-Lock tube, 0.5 mL, Eppendorf AG, Germany) and allowed to clot. After approximately 1 h, the blood was centrifuged at 6000 × g for 15 min at 4 °C to obtain the sera, which were stored at –80 °C until analysis.
Seven animals received the 1 mg/kg dose of compound 8, and five animals received the 5 mg/kg dose of compound 8. Compound 8 was prepared as a stock solution in 100% MeCN (5 and 10 mg/mL) and kept refrigerated for the duration of the study. The dosages were prepared as follows: based on the animal’s body weight, a calculated volume of compound 8 stock solution was accurately pipetted onto a cubic piece (approx. 50 mg) of sterilized toast (Ölz multigrain toast, Rudolf Ölz Meisterbäcker GmbH & Co KG, Austria), and left to dry at room temperature for 5 min. Subsequently, 25 μL of 50% sucrose in distilled water were added at the same site to mask the bitter taste of compound 8. These dosage units were prepared twice a week during the study and stored in a closed glass petri dish at room temperature until use. […] Compound 8 was administered in this way for 27 days, eliminating the need for repeated handling and injection. The animals were observed daily for general activity level, hair coat quality or other abnormal behavior or clinical signs.
24 h after the last dose was administered, the mice were humanly euthanized under isoflurane inhalation anesthesia (Isoflurin®, VetPharma, Spain) and the blood was withdrawn from the left ventricle using a syringe, collected in a microtube (Eppendorf, Safe-Lock tube, 0.5 mL, Eppendorf AG, Germany) and allowed to clot. After approximately 1 h, the blood was centrifuged at 6000 × g for 15 min at 4 °C to obtain the sera, which were stored at –80 °C until analysis. […] Animal sera (5–10 μL) were diluted in 0.5 mmol/L DTNB in 0.1 mol/L sodium phosphate buffer pH 7.4 (total volume 1000 μL), substrate (5 μL of 100 mmol/L, final concentration 0.5 mmol/L) was added, and the increase in absorbance monitored for 3 min. BChE activity was determined using butyrylthiocholine iodide, while AChE activity was determined on isoOMPA-inhibited sera (buffer-diluted sera were preincubated for 25 min with 1 μL of 100 mmol/L isoOMPA–0.1 mmol/L final concentration) using acetylthiocholine iodide (final concentration 0.5 mmol/L). Measurements were performed in triplicate and pairwise compared before and after treatment for each subject (n = 5 per group).

hAChE = hAChE (Homo sapiens, UniProt P22303); assay: ChE IC50 determination, method of Ellman, hAChE; type: biochemical
hAChE, sequence (P22303 32-614): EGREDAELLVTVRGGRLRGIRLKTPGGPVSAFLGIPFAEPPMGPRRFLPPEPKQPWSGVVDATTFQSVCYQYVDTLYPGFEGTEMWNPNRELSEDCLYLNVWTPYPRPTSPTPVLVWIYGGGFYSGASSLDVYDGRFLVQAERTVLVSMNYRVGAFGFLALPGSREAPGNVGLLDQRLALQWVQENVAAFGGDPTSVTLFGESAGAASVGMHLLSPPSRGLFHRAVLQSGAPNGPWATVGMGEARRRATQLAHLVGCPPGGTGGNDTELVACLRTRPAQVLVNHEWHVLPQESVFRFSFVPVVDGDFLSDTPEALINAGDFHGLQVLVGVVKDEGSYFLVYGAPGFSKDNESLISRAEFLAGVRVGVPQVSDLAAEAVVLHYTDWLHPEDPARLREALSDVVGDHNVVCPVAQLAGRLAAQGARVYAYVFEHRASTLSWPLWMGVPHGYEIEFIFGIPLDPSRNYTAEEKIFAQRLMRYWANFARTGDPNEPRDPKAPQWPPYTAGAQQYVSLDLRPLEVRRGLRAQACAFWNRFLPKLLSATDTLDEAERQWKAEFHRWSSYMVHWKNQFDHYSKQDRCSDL
Description: The inhibitory potencies of the compounds against the ChEs were determined using the method of Ellman following the procedure described previously. Briefly, compound stock solutions in DMSO were incubated with Ellman’s reagent and ChEs (final concentrations: 370 μmol/L Ellman’s reagent, approximately 1 nmol/L or 50 pmol/L hBChE or hAChE, respectively) in 0.1 mol/L sodium phosphate pH 8.0 for 5 min at 20 °C. For time-dependency measurements, the pre-incubation time was varied (1, 5, 15, 30 or 60 min). The reactions were started by the addition of the substrate (final concentration, 500 μmol/L butyrylthiocholine iodide or acetylthiocholine iodide for hBChE and hAChE, respectively). The final content of DMSO was always 1%. The increase in absorbance at 412 nm was monitored for 2 min using a 96-well microplate reader (Synergy HT, BioTek Instruments, VT, USA). The initial velocities in the presence (vi) and absence (v0) of the test compounds were calculated. The inhibitory potencies were expressed as the residual activities, according to Eq. (1):(1) RA = vi / v0
For IC50 determinations, at least seven different concentrations for each compound were used. The IC50 values were obtained by plotting the residual ChE activities against the applied inhibitor concentrations, with the experimental data fitted to a four-parameter logistic function (GraphPad Prism 9.4). Tacrine and donepezil were used as positive controls.

CCN(CC)C(=O)n1cnc(C2(CC)Cc3ccccc3C2)c1 [Compound 8, N,N-Diethyl-4-(2-ethylindan-2-yl)-1H-imidazole-1-carboxamide]
serum AChE activities at the end of treatment (AChE; 1 or 5 mg/kg p.o. once a day for 4 weeks): unchanged
remaining activity at 1 mg/kg (AChE; mouse, po, serum, 1 mg/kg p.o. once a day, individual animals, after vs before treatment, read-out: AChE residual activity): 91.2%
remaining activity at 1 mg/kg (AChE; mouse, po, serum, 1 mg/kg p.o. once a day, read-out: AChE residual activity, AVERAGE): 101%
remaining activity at 5 mg/kg (AChE; mouse, po, serum, 5 mg/kg p.o. once a day, read-out: AChE residual activity, AVERAGE): 91.2%
AChE residual activity (AChE; serum, 1 mg/kg p.o. once a day, individual animals, after vs before treatment, 1 mg/kg): 104.0%±9.7% and 107.1%±22.3%
AChE activity AFTER treatment (AChE; serum, 1 mg/kg p.o. once a day, individual animals, 1 mg/kg): 0.9541±0.2227 U/mL and 1.0365±0.0653 U/mL and 0.8481±0.0324 U/mL
AChE residual activity (AChE; serum, 5 mg/kg p.o. once a day, individual animals, after vs before treatment, 5 mg/kg): 89.7%±14.6% and 63.0%±13.9% and 121.0%±17.4%
AChE activity AFTER treatment (AChE; serum, 5 mg/kg p.o. once a day, individual animals, 5 mg/kg): 0.9258±0.0430 U/mL and 0.7420±0.1450 U/mL and 0.9517±0.0657 U/mL
hAChE time-dependency observed: Yes/No (hAChE; pre-incubation time varied): No
remaining activity at 100 µM (hAChE; residual activity at 100 μmol/L, after 5 min preincubation, read-out: hAChE RA±SD (residual activity)): 62%

From PMC12491715 (Acta Pharmaceutica Sinica. B, 2025)
